Test results published in patent publication US20260240885A1, “PHOSPHORYLATED HEXAACYL DISACCHARIDES FOR TREATING OR PREVENTING ACUTE KIDNEY INJURY” (VANDERBILT UNIVERSITY, priority 2022, published 2026).
Entries after “also recorded” stand apart in the source; their conditions may differ.

Legend:
unilateral IRI-AKI = assay: Unilateral IRI-AKI (left renal pedicle clamping 28 min with contralateral nephrectomy) in mice pretreated with PHAD; assay type: in vivo, mouse (male BALB/c)
Procedure: (§1) A blinded, randomized controlled study in mice, assessed the efficacy of intravenous 3D 6-Acyl phosphorylated hexa-acyl disaccharide (PHAD, a de novo ultrapure synthetic toll-like receptor 4 agonist), to protect against IRI-AKI. Two cohorts of male BALB/c mice received intraperitoneal vehicle or PHAD (10, 20, or 40 μg); or intravenous vehicle or PHAD (2, 20, or 200 μg) at 48 and 24 hours prior to unilateral renal pedicle clamping and simultaneous contralateral nephrectomy (unilateral IRI-AKI). In a separate cohort, mice were treated with vehicle or 200 μg of PHAD followed by bilateral IRI-AKI. Mice were monitored for 3 days after reperfusion and euthanized.
(§2) Kidney function was assessed by blood urea nitrogen (BUN) and serum creatinine measurements. Kidney tubular injury was assessed by semi-quantitative analysis of tubular morphology on PAS-stained kidney sections, and kidney mRNA quantification of injury (N-Gal, Kim-1 and HO-1) and inflammation (IL-6, IL-1b and TNF-α) using qRT-PCR technique. Additional studies were conducted using immunohistochemistry to quantify Kim-1 and F4/80 protein to assess kidney injury and macrophages, respectively. […] Histological injury and N-Gal mRNA were lower, and IL-1b mRNA higher in 200 μg 3D 6-Acyl PHAD treated mice.
(§3) Ischemia Reperfusion Induced Acute Kidney Injury. Male BALB/c mice, 10- to 11-weeks old (22 to 25 g) were purchased from Charles River (Hollister, CA), and were allowed to acclimate for one week prior to studies. IRI-AKI surgery was performed under ketamine/xylazine anesthesia (120 mg/kg [3 mg ketamine], 12 mg/kg [0.3 mg] xylazine) administered in 100 μl sterile saline by intraperitoneal (IP) injection. Mice underwent two types of surgery to induce IRI-AKI. Unilateral IRI-AKI with contralateral nephrectomy (unilateral IRI), and in separate cohorts, bilateral IRI-AKI. For unilateral IRI, the mouse was placed prone on a heat pad set to 37° C., and incisions were made in the muscle and skin to exteriorize the right kidney for nephrectomy. The adrenal gland was displaced from the kidney, and 5-0 silk suture (Ethicon, LA53G) was tied around the renal artery, vein, and ureter with a double surgical knot, before the kidney was removed by cutting distally to the knot. The left kidney was then exteriorized, and fat and connective tissue were dissected from the renal pedicle to expose the renal artery and vein. A vascular clamp (Roboz, cat #RS-5459) was applied to the renal vasculature for 28 minutes. The kidney was tucked back under the skin and the mouse was kept warm on the heat pad during the 28 minutes of ischemia time. For bilateral IRI-AKI, mice underwent bilateral renal artery ischemia for 24 minutes without nephrectomy. Successful ischemia was confirmed by a dark purple appearance of the kidney prior to clamp removal, and successful reperfusion was confirmed by a return to the normal pink color of the kidney within 1-2 min of clamp removal. Upon removing the vascular clamp, the muscle wall was closed with 6-0 absorbable suture (Ethicon, J492G) followed by skin closure with 7 mm wound clips (Roboz, RS-9255, RS-9250). Upon skin closure, mice received 0.5 ml of warm sterile saline subcutaneous (SQ) immediately after surgery, and at 24 hours after surgery. Analgesia was provided with buprenorphine SQ immediately after surgery and every 12 hours for 3 days. Sham operated mice underwent the same surgical approaches (for unilateral IRI-AKI, they underwent right nephrectomy, but the left renal pedicle was not clamped, and for bilateral IRI-AKI, both kidneys were exteriorized but the renal pedicles were not clamped). Blood was collected at baseline (prior to injury), and days 1 and 3 after injury by submandibular vein puncture into a lithium-heparin coated microcuvette tubes, and plasma frozen at −80° C. for blood urea nitrogen (BUN) and creatinine assays. […]

bilateral IRI-AKI = assay: Bilateral IRI-AKI (bilateral renal pedicle clamping 24 min) in mice pretreated with PHAD; assay type: in vivo, mouse (male BALB/c)
Procedure: as §1, §2, §3

[1] = IV PHAD 2, 20, 200 μg/mouse 48 and 24 h before injury, vs vehicle, post-injury day 1 and 3 (FIG. 1A)
[2] = IV PHAD 200 μg/mouse 48 and 24 h before injury, 24 and 72 hours after bilateral IRI-AKI (FIG. 2A)
[3] = IV PHAD 200 μg/mouse vs vehicle, Day 3 (FIG. 2F)
[4] = IV PHAD 200 μg/mouse vs vehicle, Day 3 (FIG. 3)

## CCCCCCCCCCCCCC(=O)OC(CCCCCCCCCCC)CC(=O)NC1C(O)OC(COC2OC(CO)C(OP(=O)(O)O)C(OC(=O)CC(CCCCCCCCCCC)OC(=O)CCCCCCCCCCCCC)C2NC(=O)CC(CCCCCCCCCCC)OC(=O)CCCCCCCCCCCCC)C(O)C1O.N (stereo not shown) [PHAD, monophosphoryl hexa-acyl Lipid A, 3-Deacyl 6-acyl phosphorylated hexa-acyl disaccharide]
Unilateral IRI-AKI; 200 μg (Example 1)
  Histological injury: lower
  IL-1b mRNA: higher
Unilateral IRI-AKI; 200 μg PHAD, Day 3 (FIG. 1E)
  renal Kim-1 mRNA expression (qRT-PCR): no reduction
  renal N-Gal mRNA expression (qRT-PCR): reduction in expression
Unilateral IRI-AKI; 200 μg PHAD, Day 3 (FIG. 1E), listed as 3D 6-Acyl PHAD
  renal N-Gal mRNA expression (qRT-PCR): lower
Unilateral IRI-AKI; 2 and 20 μg pretreatment dose (FIG. 1D)
  survival compared with the vehicle control group: more mice survived
Unilateral IRI-AKI; [1]
  BUN levels: reduced elevations
  creatinine levels: reduced elevations
Unilateral IRI-AKI; IV PHAD 2, 20, 200 μg/mouse vs vehicle control (FIG. 1E)
  renal IL-1β mRNA (qRT-PCR): dose-dependent increase
Unilateral IRI-AKI; IV PHAD 2, 20, 200 μg/mouse vs vehicle, log-rank test (FIG. 1D)
  3-day survival: no significant improvement in survival
Unilateral IRI-AKI; IV PHAD, increasing doses, Day 3 after injury (FIGS. 1B, 1C)
  tubular injury in the cortex and OSOM (PAS-stained sections): reduced tubular injury
Unilateral IRI-AKI; pretreatment with PHAD at 48 and 24 h before unilateral IRI-AKI (Example 1)
  renal function: dose-dependent preservation of renal function
Bilateral IRI-AKI; [2]
  BUN levels: reduced
  creatinine levels: reduced
Bilateral IRI-AKI; IV PHAD 200 μg/mouse vs vehicle (FIG. 6)
  3-day survival: no difference in survival
Bilateral IRI-AKI; [3]
  renal IL-1β mRNA (qRT-PCR): increased
  renal IL-6 mRNA (qRT-PCR): no differences
  renal Kim-1 mRNA (qRT-PCR): no differences
  renal N-Gal mRNA (qRT-PCR): lower levels
  renal Tnf-α mRNA (qRT-PCR): no differences
Bilateral IRI-AKI; [4]
  F4/80 staining for renal macrophages: no difference in F4/80 staining
  area of cells expressing Kim-1 protein (immunostaining), outer medulla: significant reduction; also recorded: significantly reduced
Bilateral IRI-AKI; IV PHAD 200 μg/mouse vs vehicle, Day 3 (FIG. 4A)
  renal expression of Ho-1 mRNA (qRT-PCR): reduced
Bilateral IRI-AKI; IV PHAD 200 μg/mouse vs vehicle, Day 3 (FIG. 4B)
  renal Irf-1 mRNA (qRT-PCR): no differences in expression
Bilateral IRI-AKI; IV PHAD 200 μg/mouse vs vehicle, Day 3 (FIG. 4C)
  renal Ccl-2 mRNA (qRT-PCR): no differences in expression
Bilateral IRI-AKI; IV PHAD 200 μg/mouse vs vehicle, Day 3 (FIG. 4D)
  renal Ccl-3 mRNA (qRT-PCR): no differences in expression
Bilateral IRI-AKI; IV PHAD 200 μg/mouse, Day 3 (FIGS. 2B, 2D)
  tubular injury (PAS-stained sections, outer stripe of outer medulla): reduced tubular injury
Bilateral IRI-AKI; IV PHAD 200 μg/mouse, Day 3 (FIGS. 2C, 2E)
  apoptosis (TUNEL, outer stripe of outer medulla): reduced apoptosis
